Test results published in patent US20200002354A1, “HEXAHYDROPYRAZINOBENZ- OR -PYRIDO-OXAZEPINES CARRYING AN OXYGEN-CONTAINING SUBSTITUENT AND USE THEREOF IN THE TREATMENT OF 5-HT2C-DEPENDENT DISORDERS” (AbbVie Deutschland GmbH & Co. KG, priority 2015, published 2020).

Columns and labels:
human 5-HT2A receptor = target: T1, human 5-HT2A receptor (Homo sapiens, UniProt P28223); assay: Human 5-HT2A functional assay (calcium mobilisation in CHO-K1 cells, FLIPR); format: cell-based; details: based on agonism: EC50 5-HT2A/EC50 5-HT2C
T1 construct: expressed in transfected cells; host or cells: CHO-K1
T1 sequence (P28223 whole entry): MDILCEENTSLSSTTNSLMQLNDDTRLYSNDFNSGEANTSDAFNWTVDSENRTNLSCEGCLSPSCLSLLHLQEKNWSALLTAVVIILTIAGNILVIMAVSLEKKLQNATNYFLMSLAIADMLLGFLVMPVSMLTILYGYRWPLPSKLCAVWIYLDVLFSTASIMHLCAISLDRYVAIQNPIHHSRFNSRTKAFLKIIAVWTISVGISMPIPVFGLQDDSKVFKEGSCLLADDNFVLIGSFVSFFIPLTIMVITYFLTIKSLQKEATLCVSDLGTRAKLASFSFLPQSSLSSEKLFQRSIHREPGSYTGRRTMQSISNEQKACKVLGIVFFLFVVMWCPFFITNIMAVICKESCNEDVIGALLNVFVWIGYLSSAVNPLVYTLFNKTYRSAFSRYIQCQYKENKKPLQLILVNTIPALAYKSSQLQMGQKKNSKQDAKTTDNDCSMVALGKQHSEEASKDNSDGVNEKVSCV
Method: 2. Human 5-HT2A Functional Assay
Functional activity on the 5-HT2A receptor was determined by testing the effect of the compounds I on calcium mobilisation in CHO-K1 cells, stably transfected with human 5-HT2A receptor. Cells were seeded into sterile black 384-well plates with clear bottom at 25,000 cells/well in a volume of 25 μl and grown for 5-6 hours at 37° C., in 5% CO2 in tissue culture medium (“Ultra CHO” by LONZA), containing 1% dialysed FCS and 50 μg/ml gentamicin (Invitrogen). After this incubation, medium was replaced by a serum free version of the same tissue culture medium followed by incubation overnight at 37° C. and in 5% CO2. Cells were then loaded with a fluorescent calcium-sensitive dye in the presence of 0.07% probenecid for an hour at 37° C., according to the manufacturer's protocol (Ca5-Assay Kit, Molecular Devices), followed by an additional 60 min incubation at room temperature. Serial compound dilutions (final concentrations of 10^−10 to 10^−5M, prepared in HBSS+50 mM HEPES) were first added to the cells alone (“first addition” to assess agonism on the 5-HT2A receptor), then after 8 min, serotonin was added to the same wells at a final concentration of 3×10^−8 M (“second addition” to see potential antagonistic effect) and the maximal calcium response was determined using a FLIPR® Tetra instrument (Molecular Devices) in each of the two steps. The relative efficacy of the compounds was calculated as a percentage of the maximal effect induced by serotonin alone (defined as 100%). To determine EC50/IC50 values, concentration-response curves were fitted using a four-parameter logistic equation (IDBS Biobookml). Kb values were calculated from IC50 values, according to Cheng & Prusoff

5-HT2C receptor = target: T2, 5-HT2C receptor (Homo sapiens, UniProt P28335); assay: Human 5-HT2C functional assay (beta-arrestin2 recruitment, U2OS_HTR2C_β-Arrestin cells); format: cell-based; details: for EC50: Potency (EC50 5-HT2C) in functional assay, agonism, read-out: EC50 5-HT2C; for Emax: relative efficacy vs maximal effect induced by 5-HT (defined as 100%)
T2 construct: host or cells: U2OS
T2 sequence (P28335 33-458): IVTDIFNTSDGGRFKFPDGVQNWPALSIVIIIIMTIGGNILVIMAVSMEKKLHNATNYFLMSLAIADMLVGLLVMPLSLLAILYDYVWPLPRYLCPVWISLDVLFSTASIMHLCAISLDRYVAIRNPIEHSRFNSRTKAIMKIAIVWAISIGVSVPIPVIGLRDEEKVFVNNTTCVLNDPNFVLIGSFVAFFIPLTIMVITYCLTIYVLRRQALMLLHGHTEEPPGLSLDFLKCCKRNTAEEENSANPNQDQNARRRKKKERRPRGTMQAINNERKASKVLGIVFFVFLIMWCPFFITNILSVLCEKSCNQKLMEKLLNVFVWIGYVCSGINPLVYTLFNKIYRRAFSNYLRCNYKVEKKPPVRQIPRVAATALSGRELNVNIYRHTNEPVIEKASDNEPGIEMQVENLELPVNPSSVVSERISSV
T2 sequence (P32121 whole entry partner): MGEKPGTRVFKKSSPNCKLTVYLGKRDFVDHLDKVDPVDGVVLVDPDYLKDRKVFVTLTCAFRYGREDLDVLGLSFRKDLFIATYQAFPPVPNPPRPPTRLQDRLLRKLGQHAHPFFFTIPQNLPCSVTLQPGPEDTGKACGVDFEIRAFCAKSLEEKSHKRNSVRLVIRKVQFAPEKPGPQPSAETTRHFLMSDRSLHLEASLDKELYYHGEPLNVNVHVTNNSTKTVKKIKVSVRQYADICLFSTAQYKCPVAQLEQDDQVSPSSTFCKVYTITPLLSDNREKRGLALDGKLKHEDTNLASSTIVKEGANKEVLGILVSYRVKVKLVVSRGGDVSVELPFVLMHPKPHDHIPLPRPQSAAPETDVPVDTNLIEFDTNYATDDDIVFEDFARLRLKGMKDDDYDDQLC
Method: 1. Human 5-HT2C Functional Assay
The functional activity of compounds of formula I was assayed by incubation with U2OS_HTR2C_β-Arrestin cells (DiscoverX, 93-0289C3) to induce beta-arrestin2 recruitment to the 5-HT2C receptor. The agonist-induced recruitment and proximity of the receptor and beta-arrestin2 leads to complementation and formation of active β-galactosidase. The enzyme complementation results in enzyme activity, which is measured following the termination of the agonist incubation using DiscoveRx's detection reagent, which contains a chemiluminescent substrate which produces a high intensity signal. Cells were plated and a medium-change to a 1% serum containing medium was performed 24 h later. The next day, test compounds were added and incubated for 1.5 h before addition of detection reagent.
The response produced was measured and compared with the response produced by 10 [mu]M 5-HT or the maximal effect induced by 5-HT (defined as 100%) to which it was expressed as a percentage response (relative efficacy).

human 5-HT2B receptor = target: T3, human 5-HT2B receptor (Homo sapiens, UniProt P41595); assay: Human 5-HT2B functional assay (calcium mobilisation in CHO-FlpIn cells, FLIPR); format: cell-based; details: based on agonism: EC50 5-HT2B/EC50 5-HT2C
T3 construct: expressed in transfected cells; host or cells: CHO-FlpIn
T3 sequence (P41595 whole entry): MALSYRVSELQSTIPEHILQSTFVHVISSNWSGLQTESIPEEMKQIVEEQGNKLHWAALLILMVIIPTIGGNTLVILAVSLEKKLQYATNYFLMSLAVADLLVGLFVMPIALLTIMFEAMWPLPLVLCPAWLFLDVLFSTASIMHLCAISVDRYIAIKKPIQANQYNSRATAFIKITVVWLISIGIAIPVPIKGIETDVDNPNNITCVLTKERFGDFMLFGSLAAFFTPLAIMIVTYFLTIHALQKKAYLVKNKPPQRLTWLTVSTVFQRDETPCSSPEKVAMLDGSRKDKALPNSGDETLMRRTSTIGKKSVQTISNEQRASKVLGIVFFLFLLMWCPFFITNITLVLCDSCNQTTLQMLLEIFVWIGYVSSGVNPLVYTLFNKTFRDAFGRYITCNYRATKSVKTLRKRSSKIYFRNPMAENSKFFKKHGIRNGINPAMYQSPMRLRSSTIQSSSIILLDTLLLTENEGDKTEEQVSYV
Method: 3. Human 5-HT2B Functional Assay
Functional activity on the 5-HT2B receptor was determined by testing the effect of the compounds I on calcium mobilisation in CHO-FlpIn cells, stably transfected with human 5-HT2B receptor. Cells were seeded into sterile black 384-well plates with clear bottom at 30,000 cells/well in a volume of 25 μl and grown overnight at 37° C., in 5% CO2 in tissue culture medium (“CHO-S-SFM II” by Invitrogen), containing 1% dialysed FCS and 50 μg/ml gentamicin (Invitrogen). On the next morning, medium was replaced by a serum free version of the same tissue culture medium for a further incubation for 4 hours at 37° C. and in 5% CO2. Cells were then loaded with a fluorescent calcium-sensitive dye in the presence of 0.07% probenecid for an hour at 37° C., according to the manufacturer's protocol (Ca5-Assay Kit, Molecular Devices), followed by an additional 60 min incubation at room temperature. Serial compound dilutions (final concentrations of 10^−10 to 10^−5M, prepared in HBSS+50 mM HEPES) were first added to the cells alone (“first addition” to assess agonism on the 5-HT2B receptor), then after 8 min, serotonin was added to the same wells at a final concentration of 10^−8 M (“second addition” to see potential antagonistic effect) and the maximal calcium response was determined using a FLIPR® Tetra instrument (Molecular Devices) in each of the two steps. The relative efficacy of the compounds was calculated as a percentage of the maximal effect induced by serotonin alone (defined as 100%). To determine EC50/IC50 values, concentration-response curves were fitted using a four-parameter logistic equation (IDBS Biobookml). Kb values were calculated from IC50 values, according to Cheng & Prusoff

[1] = Metabolic stability in human liver microsomes, unbound intrinsic clearance; format: in vitro ADME; details: liver microsomes, pH 7.4; unbound intrinsic clearance (human); Clint unbound = Cl int/fu mic; read-out: Cl int, mic unb. (h)
Method: Samples of the tested compounds (0.5 μM) were preincubated together with human liver microsomes (0.25 mg of microsomal protein/mL) in 0.05 M potassium phosphate buffer of pH 7.4 in microtiter plates at 37° C. for 5 minutes. The reaction was started by adding NADPH (1.0 mM). After 0, 5, 10, 15, 20 and 30 minutes, an aliquot was removed, the reaction was cooled and stopped by adding twice the amount of quench solution consisting of acetonitrile/methanol 1:1, and containing 0.2 μM carbutamide as internal standard. The samples were frozen until analyzed. The remaining concentration of undegraded test substance was determined by liquid chromatography-tandem mass spectrometry (LC-MS/MS). The half-life (t1/2) was determined from the gradient of the ratio of the signal of (test substance/internal standard)/unit time plot, allowing the calculation of the half-life of the test substance, assuming first order kinetics, from the decrease in the concentration of the compound with time. The microsomal clearance (mClint) was calculated as follows: mClint=((ln(2)/t ½)/Microsomal Protein Concentration (mg/ml))*1000, leading to the unit of uL/min/mg. The scaled clearance (mClin_scaled) was calculated as mCLint_scaled=m CLint*(Microsomal Yield (mg/kg BW))/1000000*60, leading to the units L/h/kg. The Microsomal Yield is defined by the specifics of the used microsomes. Calculations were modified from references: Di, The Society for Biomolecular Screening, 2003, 453-462; Obach, D M D, 1999 vol 27. N 11, 1350-1359.
Calculation of Unbound Intrinsic Clearance
C1int unbound=C1 int/fu mic

SMILES: COC[C@@H]1C[C@@H]2CNCCN2c2c(F)c(F)cc(Cl)c2O1.Cl [Example 16, (4aR,6S)-8-Chloro-10,11-difluoro-6-(methoxymethyl)-2,3,4,4a,5,6-hexahydro-1H-pyrazino[2,1-d][1,5]benzoxazepine hydrochloride]
- Selectivity over 5-HT2A (human 5-HT2A receptor): +++ (>100)
- EC50 (5-HT2C receptor): < 20 nM
- Emax (5-HT2C receptor): > 70%
- Selectivity over 5-HT2B (human 5-HT2B receptor): +++ (>100)
- CLint scaled at 0.5 μM [1]: < 83.3 mL/min/kg

SMILES: COC[C@@H]1C[C@@H]2CNCCN2c2c(F)c(F)cc(F)c2O1.O=C(O)/C=C/C(=O)O [Example 18, (4aR,6S)-8,10,11-Trifluoro-6-(methoxymethyl)-2,3,4,4a,5,6-hexahydro-1H-pyrazino[2,1-d][1,5]benzoxazepine; fumaric acid]
- Selectivity over 5-HT2A (human 5-HT2A receptor): +++ (>100)
- EC50 (5-HT2C receptor): 20 to 200 nM
- Emax (5-HT2C receptor): > 70%
- Selectivity over 5-HT2B (human 5-HT2B receptor): +++ (>100)
- CLint scaled at 0.5 μM [1]: < 83.3 mL/min/kg

SMILES: Cl.[2H]C([2H])([2H])OC[C@@H]1C[C@@H]2CNCCN2c2cc(F)cc(Cl)c2O1 [Example 19, (4aR,6S)-8-Chloro-10-fluoro-6-(trideuteriomethoxymethyl)-2,3,4,4a,5,6-hexahydro-1H-pyrazino[2,1-d][1,5]benzoxazepine hydrochloride]
- Selectivity over 5-HT2A (human 5-HT2A receptor): +++ (>100)
- EC50 (5-HT2C receptor): < 20 nM
- Emax (5-HT2C receptor): > 70%
- Selectivity over 5-HT2B (human 5-HT2B receptor): ++ (from >30 to 100)
- CLint scaled at 0.5 μM [1]: < 83.3 mL/min/kg

SMILES: COC[C@@H]1C[C@@H]2CNCCN2c2c(ccc(F)c2F)O1.Cl [Example 21, (4aR,6S)-10,11-Difluoro-6-(methoxymethyl)-2,3,4,4a,5,6-hexahydro-1H-pyrazino[2,1-d][1,5]benzoxazepine hydrochloride]
- Selectivity over 5-HT2A (human 5-HT2A receptor): ++ (from >30 to 100)
- EC50 (5-HT2C receptor): 20 to 200 nM
- Emax (5-HT2C receptor): 30 to 50%
- Selectivity over 5-HT2B (human 5-HT2B receptor): ++ (from >30 to 100)
- CLint scaled at 0.5 μM [1]: < 83.3 mL/min/kg

SMILES: COC[C@@H]1C[C@@H]2CNCCN2c2cc(F)cc(C(F)(F)F)c2O1.Cl [Example 22, (4aR,6S)-10-Fluoro-6-(methoxymethyl)-8-(trifluoromethyl)-2,3,4,4a,5,6-hexahydro-1H-pyrazino[2,1-d][1,5]benzoxazepine hydrochloride]
- Selectivity over 5-HT2A (human 5-HT2A receptor): +++ (>100)
- EC50 (5-HT2C receptor): < 20 nM
- Emax (5-HT2C receptor): > 70%
- Selectivity over 5-HT2B (human 5-HT2B receptor): ++ (from >30 to 100)
- CLint scaled at 0.5 μM [1]: < 83.3 mL/min/kg

SMILES: Cl.Fc1cc(Cl)c2c(c1)N1CCNC[C@H]1C[C@@H](COC(F)F)O2 [Example 24, (4aR,6S)-8-Chloro-6-(difluoromethoxymethyl)-10-fluoro-2,3,4,4a,5,6-hexahydro-1H-pyrazino[2,1-d][1,5]benzoxazepine hydrochloride]
- Selectivity over 5-HT2A (human 5-HT2A receptor): +++ (>100)
- EC50 (5-HT2C receptor): 20 to 200 nM
- Emax (5-HT2C receptor): 50 to 70%
- Selectivity over 5-HT2B (human 5-HT2B receptor): ++ (from >30 to 100)
- CLint scaled at 0.5 μM [1]: 83.3 to 833 mL/min/kg

SMILES: COC[C@@H]1C[C@@H]2CNCCN2c2c(F)c(F)cc(C(F)F)c2O1.Cl [Example 26, (4aR,6S)-8-(Difluoromethyl)-10,11-difluoro-6-(methoxymethyl)-2,3,4,4a,5,6-hexahydro-1H-pyrazino[2,1-d][1,5]benzoxazepine hydrochloride]
- Selectivity over 5-HT2A (human 5-HT2A receptor): +++ (>100)
- EC50 (5-HT2C receptor): < 20 nM
- Emax (5-HT2C receptor): > 70%
- Selectivity over 5-HT2B (human 5-HT2B receptor): +++ (>100)
- CLint scaled at 0.5 μM [1]: < 83.3 mL/min/kg

SMILES: COC[C@@H]1C[C@@H]2CNCCN2c2c(F)c(F)cc(C#N)c2O1.Cl [Example 28, (4aR,6S)-10,11-Difluoro-6-(methoxymethyl)-2,3,4,4a,5,6-hexahydro-1H-pyrazino[2,1-d][1,5]benzoxazepine-8-carbonitrile hydrochloride]
- Selectivity over 5-HT2A (human 5-HT2A receptor): ++ (from >30 to 100)
- EC50 (5-HT2C receptor): 20 to 200 nM
- Emax (5-HT2C receptor): > 70%
- Selectivity over 5-HT2B (human 5-HT2B receptor): + (from 10 to 30)
- CLint scaled at 0.5 μM [1]: < 83.3 mL/min/kg

SMILES: COC[C@@H]1C[C@@H]2CNCCN2c2c(F)c(OC)cc(C(F)F)c2O1.Cl [Example 29, (4aR,6S)-8-(Difluoromethyl)-11-fluoro-10-methoxy-6-(methoxymethyl)-2,3,4,4a,5,6-hexahydro-1H-pyrazino[2,1-d][1,5]benzoxazepine hydrochloride]
- Selectivity over 5-HT2A (human 5-HT2A receptor): +++ (>100)
- EC50 (5-HT2C receptor): 20 to 200 nM
- Emax (5-HT2C receptor): > 70%
- Selectivity over 5-HT2B (human 5-HT2B receptor): +++ (>100)
- CLint scaled at 0.5 μM [1]: 83.3 to 833 mL/min/kg

SMILES: COC[C@@H]1C[C@@H]2CNCCN2c2ccc(C)c(F)c2O1 [Example 30, (4aR,6S)-8-Fluoro-6-(methoxymethyl)-9-methyl-2,3,4,4a,5,6-hexahydro-1H-pyrazino[2,1-d][1,5]benzoxazepine]
- Selectivity over 5-HT2A (human 5-HT2A receptor): ++ (from >30 to 100)
- EC50 (5-HT2C receptor): 20 to 200 nM
- Emax (5-HT2C receptor): 50 to 70%
- Selectivity over 5-HT2B (human 5-HT2B receptor): ++ (from >30 to 100)
- CLint scaled at 0.5 μM [1]: < 83.3 mL/min/kg

SMILES: COC[C@@H]1C[C@@H]2CNCCN2c2cc(Cl)c(F)cc2O1.Cl [Example 31, (4aR,6S)-10-Chloro-9-fluoro-6-(methoxymethyl)-2,3,4,4a,5,6-hexahydro-1H-pyrazino[2,1-d][1,5]benzoxazepine hydrochloride]
- Selectivity over 5-HT2A (human 5-HT2A receptor): ++ (from >30 to 100)
- EC50 (5-HT2C receptor): 20 to 200 nM
- Emax (5-HT2C receptor): 30 to 50%
- Selectivity over 5-HT2B (human 5-HT2B receptor): ++ (from >30 to 100)
- CLint scaled at 0.5 μM [1]: < 83.3 mL/min/kg

SMILES: COC[C@H]1C[C@@H]2CNCCN2c2cc(F)cc(C(F)F)c2O1.Cl [Example 32, (4aR,6R)-8-(Difluoromethyl)-10-fluoro-6-(methoxymethyl)-2,3,4,4a,5,6-hexahydro-1H-pyrazino[2,1-d][1,5]benzoxazepine hydrochloride]
- Selectivity over 5-HT2A (human 5-HT2A receptor): ++ (from >30 to 100)
- EC50 (5-HT2C receptor): 200 to 1000 nM
- Emax (5-HT2C receptor): > 70%
- Selectivity over 5-HT2B (human 5-HT2B receptor): ++ (from >30 to 100)
- CLint scaled at 0.5 μM [1]: < 83.3 mL/min/kg
